In patent US20240270725A1, “MAGL INHIBITORS” (Hoffmann-La Roche Inc., priority 2021, published 2024):
pIC50: −log10 of the molar value.

How the values were obtained:
MAGL [1] = molecular target: T1, MAGL (Homo sapiens, UniProt Q99685); assay: 2-AG assay, MAGL inhibitory activity (human); assay type: biochemical
T1 sequence (Q99685 1-303): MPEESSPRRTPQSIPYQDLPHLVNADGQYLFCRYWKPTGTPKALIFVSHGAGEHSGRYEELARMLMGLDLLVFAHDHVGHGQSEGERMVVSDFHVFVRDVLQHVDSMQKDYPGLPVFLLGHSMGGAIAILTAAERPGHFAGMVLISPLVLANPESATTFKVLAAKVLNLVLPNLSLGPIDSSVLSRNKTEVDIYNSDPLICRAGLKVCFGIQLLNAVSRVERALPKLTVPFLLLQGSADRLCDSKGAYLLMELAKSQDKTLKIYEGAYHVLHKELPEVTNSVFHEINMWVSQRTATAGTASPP
Description: (§1) Compounds were profiled for MAGL inhibitory activity by determining the enzymatic activity by following the hydrolysis of the natural substrate, 2-arachidonoylglycerol, resulting in arachidonic acid, which can be followed by mass spectrometry. This assay is hereinafter abbreviated “2-AG assay”.
(§2) A C18 SPE cartridge (G9205A) was used in an acetonitrile/water liquid setup. […] The activity of the compounds was calculated based on the ratio of intensities [arachidonic acid/d8-arachidonic acid].

MAGL [2] = molecular target: T2, MAGL (Mus musculus, UniProt O35678); assay: 2-AG assay, MAGL inhibitory activity (mouse); assay type: biochemical
T2 sequence (O35678 1-303): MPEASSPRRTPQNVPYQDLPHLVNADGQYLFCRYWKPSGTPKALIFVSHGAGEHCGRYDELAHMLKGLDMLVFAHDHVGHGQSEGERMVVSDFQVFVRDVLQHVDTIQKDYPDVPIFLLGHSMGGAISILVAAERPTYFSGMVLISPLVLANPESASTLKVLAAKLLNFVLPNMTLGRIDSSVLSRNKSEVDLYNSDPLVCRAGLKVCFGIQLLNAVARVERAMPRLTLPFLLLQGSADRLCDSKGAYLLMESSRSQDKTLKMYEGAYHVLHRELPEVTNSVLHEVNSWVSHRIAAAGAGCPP
Description: as §1, §2

MAGL [3] = molecular target: T2, MAGL; assay: Drug occupancy study by PET with [^18F]-II; assay type: in vivo
Description: To investigate the utility of [^18F]-II, a drug occupancy study was conducted after validating the in vitro/vivo specificity. The potent and selective covalent MAGL inhibitor PF-06795071, originally developed for anti-inflammatory treatments, was applied for this study (McAllister LA, Butler C R, Mente S, et al. Discovery of Trifluoromethyl Glycol Carbamates as Potent and Selective Covalent Monoacylglycerol Lipase (MAGL) Inhibitors for Treatment of Neuroinflammation. J Med Chem. 2018;61:3008-3026). PF-06795071 was prepared as a transparent solution in a vehicle of DMSO/Cremophor/saline (v/v/v=5/5/90). The animal was treated with escalating doses of PF-06795071 (0.002, 0.01, 0.05, 0.2 and 2 mg/kg) 1 hour prior to the administration of [^18F]-II (4.15-11.13 MBq, 6.84-13.19 nmol/kg). The in vivo PET scans and data reconstruction were carried out as described in Example 9. The SUVs from the whole brain TACs was averaged from 0-90 min to obtain SUV0-90 min in receptor occupancy study as previously detailed by Krämer et al. (Krämer SD, Betzel T, Mu L, et al. Evaluation of ^11C-Me-NB1 as a Potential PET Radioligand for Measuring GluN2B-Containing NMDA Receptors, Drug Occupancy, and Receptor Cross Talk. J Nucl Med. 2018;59:698-703). The non-linear curve was fitted with GraphPad Prism Software (version 8.3.4, GraphPad Software Inc) for D50 value.

MAGL [4] = molecular target: T3, MAGL (Rattus norvegicus, UniProt Q8R431); assay: In vitro autoradiography blockade on rat brain section; assay type: binding; conditions: 10 μM blocker
T3 construct: from tissue; host or cells: Wistar rat brain sections
T3 sequence (Q8R431 1-303): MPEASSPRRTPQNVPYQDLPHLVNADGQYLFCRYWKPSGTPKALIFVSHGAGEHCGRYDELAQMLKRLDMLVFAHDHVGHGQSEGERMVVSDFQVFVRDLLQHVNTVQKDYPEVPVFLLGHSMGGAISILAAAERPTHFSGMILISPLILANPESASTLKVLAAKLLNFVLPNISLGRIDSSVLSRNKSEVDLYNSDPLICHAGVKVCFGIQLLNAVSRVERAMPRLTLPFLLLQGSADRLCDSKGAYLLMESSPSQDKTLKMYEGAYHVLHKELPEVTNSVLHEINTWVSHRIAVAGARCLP

MAGL [5] = system: MAGL
Description: Frozen brain tissues of Wistar rats or mouse were cut in the thickness of 10 μm on a cryostat (Cryo-Star HM 560 MV; Microm, Thermo Scientific, Wilmington, DE), and stored at −20° C. before use. Before the experiments, the slices were thawed on ice for 10 min and subsequently immersed into aqueous 50 mM Tris buffer (pH 7.4, 30 mM HEPES, 1.2 mM MgCl2, 110 mM NaCl, 5 mM KCl, 2.5 mM CaCl2) containing 3% fatty acid free bovine serum albumin (BSA) at 0° C. for 10 min for precondition. Upon drying, incubation was carried out in a humidified chamber with the radiotracer at room temperature for 30 min. […] The slices were decanted after incubation, and washing procedure was conducted. The slices were left to dry before attaching to phosphor imager plates (Fuji, Dielsdorf, Switzerland), and exposure was lasted for 60 min. The films were later scanned by BAS5000 reader (Fuji), and data analysis was performed using AIDA 4.50.010 software (Raytest Isotopenmessgerate GmbH, Straubenhardt, Germany).

MAGL [6] = assay: In vivo PET scans in MAGL KO and WT mice; conditions: mouse brain, at 1 min p.i., intravenous
Description: The animal was anesthetized using isoflurane and placed in the PET/CT scanner (Super Argus, Sedecal, Madrid, Spain). The radiotracer was injected intravenously, and data was acquired at 1 min post-injection. The dynamic PET scan lasted 60 min for [^11C]-I, while it's prolonged to 90 min for [^18F]-II and [^18F]-III. […] The regions of interest (ROI) were defined on an MRI T2 (W.Schiffer) template provided by PMOD v4.002 (PMOD Technologies, Zurich, Switzerland) to generate the corresponding time acitivity curves (TACs). The radioactivity accumulations in the whole brain and different regions were expressed as standardized uptake values (SUVs), which is the decay-corrected regional radioactivity normalized to the injected radioactivity and body weight.

MAGL [7] = conditions: reported in Hattori et al., J Med Chem 2019; cited from earlier work

SMILES: COc1cccc(-c2ccc(N3C[C@H](N4CCN(C(=O)c5ccco5)CC4)CC3=O)cc2)c1 [I, (R)-4-(4-(Furan-2-carbonyl)piperazin-1-yl)-1-(3′-methoxy-[1,1′-biphenyl]-4-yl)pyrrolidin-2-one]
- pIC50 (MAGL [1]): 8.19
- pIC50 (MAGL [2]): 8.37

SMILES: O=C(c1ccco1)N1CCN([C@@H]2CC(=O)N(c3ccc(-c4cccc(F)c4)cc3)C2)CC1 [III, (R)-1-(3′-Fluoro-[1,1′-biphenyl]-4-yl)-4-(4-(furan-2-carbonyl)piperazin-1-yl)pyrrolidin-2-one]
- pIC50 (MAGL [1]): 7.94
- pIC50 (MAGL [2]): 7.95

SMILES: O=C(O[C@H](CO)C(F)(F)F)N1C[C@@H]2C(c3ccn(-c4ccc(F)cc4)n3)[C@@H]2C1 (stereo partly shown) [PF-06795071]
- effect on [^18F]-II accumulation in the mouse brain (MAGL [3]; 0.002 to 2 mg/kg): dose-dependent reduction
- required dose to occupy 50% MAGL in the mouse brain (D50) (MAGL [3]; given 1 hour prior to [^18F]-II, SUV0-90 min whole brain): 0.034 mg/kg

SMILES: O=C(OC(C(F)(F)F)C(F)(F)F)N1CCC(CNS(=O)(=O)c2ccc(Cl)cc2)CC1 [SAR127303]
- blockade of specific binding of [^11C]-I (MAGL [4]): substantial reduction and homogenous distribution of the radioactivity

SMILES: [11CH3]Oc1cccc(-c2ccc(N3C[C@H](N4CCN(C(=O)c5ccco5)CC4)CC3=O)cc2)c1 [[^11C]-I, (R)-4-(4-(furan-2-carbonyl)piperazin-1-yl)-1-(3′-(methoxy-^11C)-[1,1′-biphenyl]-4-yl)pyrrolidin-2-one]
- specificity and selectivity in vitro (MAGL [5]; autoradiography, blockade and MAGL KO brain section): high specificity and selectivity
- distribution of radioactive signal accumulation on brain slices (MAGL [5]; ~1 nM radiotracer, mouse or rat brain slice): heterogeneous distribution of radioactive signal accumulation, which matched to the MAGL expression pattern in rodents
- SUVmax (brain uptake) (MAGL [6]): ~1.32

SMILES: O=C(c1ccco1)N1CCN([C@@H]2CC(=O)N(c3ccc(-c4cccc([18F])c4)cc3)C2)CC1 [[^18F]-III]
- SUVmax (brain uptake) (MAGL [6]): ~1.63

SMILES: O=C(c1ccco1)N1CCN([C@@H]2CC(=O)N(c3ccc(-c4ccc([18F])cc4)cc3)C2)CC1 [[^18F]-II]
- SUVmax (brain uptake) (MAGL [6]): ~1.56

SMILES: Cc1ccnc([18F])c1-c1cccc(N2C[C@H](N3CCN(C(=O)c4nccs4)CC3)CC2=O)c1 [[^18F]T-401, (4R)-1-{3-[2-(^18F)Fluoro-4-methylpyridin-3-yl]phenyl}-4-[4-(1,3-thiazol-2-ylcarbonyl)piperazin-1-yl]pyrrolidin-2-one]
- SUVmax (brain uptake), literature (MAGL [7]): ~0.7
